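Cells were grown in 96-well plates and exposed to each compound for 48 hours at five concentrations; endpoints were interpolated linearly between bracketing concentrations, or set to the highest concentration if not reached. The concentration for 50% growth inhibition is given as GI50.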 Calls of active or inactive are those of the source. Cut-off read from the data, not from the text of the source: active = GI50 up to about 1.1 µM and inactive = higher.

Some test systems named below: K562; M14; HOP-62; SF-268; A498; MOLT-4; ACHN; SK-OV-3; SR; SN12C; RXF 393; SK-MEL-5; 786-0; M19-MEL; SNB-75; NCI-H226; EKVX; NCI-H522; SW-620.
Holding throughout (experiment): inhibition of tumour cell growth, NCI panel, 48 h

Regarding `CS(=O)(=O)OCCN1CCN(C(=O)c2ccc(Cl)c3c(Nc4ccc(S(=O)(=O)N=C(N)N)cc4)c4ccccc4nc23)CC1`, the GI50 in the assay on K562, with M14, in the assay with HOP-62, in the assay with SF-268, with A498 and in the assay on MOLT-4 was > 100 µM (inactive) each time. Also, the GI50 with ACHN, in the assay on SK-OV-3, with SR, with SN12C, in the assay on RXF 393 and with SK-MEL-5 was > 100 µM (inactive) in each case. Further, the GI50 in the assay on 786-0, in the assay on M19-MEL, in the assay on SNB-75 and with NCI-H226 was > 100 µM (inactive) in each case.

Turning to `CON(C)C(=O)CCCO`, the GI50 in the assay on K562, with M14, in the assay on HOP-62, in the assay with EKVX, in the assay with SF-268 and in the assay on NCI-H522 was > 100 µM (inactive) in each case. For the same compound, the GI50 was > 100 µM (inactive) with MOLT-4; > 100 µM (inactive) in the assay with ACHN; > 10 µM (inactive) in the assay on SK-OV-3; > 100 µM (inactive) in the assay with SR; > 100 µM (inactive) in the assay on SN12C; > 100 µM (inactive) with RXF 393. In addition, the GI50 in the assay on SK-MEL-5, with SW-620, in the assay on 786-0, in the assay with M19-MEL, in the assay with SNB-75 and in the assay with NCI-H226 was > 100 µM (inactive) in each case.

On to `CCN(CC)c1c(C(=O)/C=C/c2ccc(F)cc2)c(-c2ccccc2)nn(C)c1=O`, for which the GI50 is 12.4 µM (inactive) in the assay on K562; 12.1 µM (inactive) in the assay on M14; 11.6 µM (inactive) in the assay with HOP-62; 13.8 µM (inactive) in the assay with EKVX; 8.79 µM (inactive) with SF-268; 7.57 µM (inactive) in the assay with A498. Further, the GI50 in the assay with NCI-H522 is 3.57 µM (inactive); with MOLT-4, 2.23 µM (inactive); with ACHN it was 6.9 µM (inactive); in the assay with SK-OV-3, 11.9 µM (inactive); with SN12C, 6.93 µM (inactive); with RXF 393 it was 3.13 µM (inactive). The GI50 with SK-MEL-5 was 8.89 µM (inactive); in the assay with SW-620, 8.59 µM (inactive); with 786-0, 10.3 µM (inactive); in the assay on M19-MEL it was 6.64 µM (inactive); in the assay with SNB-75 it was 4.51 µM (inactive); with NCI-H226, 14.7 µM (inactive).

`COC(OC)c1cccnc1C`: the GI50 in the assay on K562, with M14, in the assay with HOP-62, in the assay on EKVX, with SF-268 and in the assay on NCI-H522 was > 100 µM (inactive) each time. The GI50 in the assay with MOLT-4, in the assay with ACHN, with SK-OV-3, in the assay on SR, with SN12C and with RXF 393 was > 100 µM (inactive) in each case. In addition, the GI50 with SK-MEL-5, with SW-620, in the assay on 786-0, in the assay on M19-MEL and in the assay on SNB-75 was > 100 µM (inactive) throughout.

With `Cc1c(O)c(=O)ccn1C1OC(CO)C(O)C1O` (stereo not given), the GI50 in the assay on K562 is 50.4 µM (inactive); in the assay on M14, > 100 µM (inactive); with HOP-62, > 100 µM (inactive); in the assay on EKVX it was > 100 µM (inactive); with SF-268, > 100 µM (inactive); in the assay with A498 it was > 100 µM (inactive). The GI50 was > 100 µM (inactive) in the assay on NCI-H522; 67.1 µM (inactive) with MOLT-4; > 100 µM (inactive) with ACHN; > 100 µM (inactive) in the assay with SK-OV-3; > 100 µM (inactive) in the assay with SR; > 100 µM (inactive) in the assay with SN12C. Moreover, the GI50 was > 100 µM (inactive) in the assay with RXF 393; > 100 µM (inactive) with SK-MEL-5; > 100 µM (inactive) in the assay with SW-620; 85.9 µM (inactive) with 786-0; > 100 µM (inactive) in the assay with M19-MEL; > 100 µM (inactive) in the assay with SNB-75. Further, the GI50 with NCI-H226 is > 100 µM (inactive).

As to `Cc1cc2c(ccc3c(C)cc(=O)oc32)o1`, the GI50 with K562 is > 100 µM (inactive); in the assay on M14, > 100 µM (inactive); in the assay on HOP-62, > 100 µM (inactive); in the assay with EKVX, > 100 µM (inactive); with SF-268, > 81.3 µM (inactive); with NCI-H522, > 83.6 µM (inactive). Moreover, the GI50 in the assay on MOLT-4 was > 100 µM (inactive); in the assay on ACHN, > 100 µM (inactive); in the assay on SK-OV-3 it was > 100 µM (inactive); in the assay with SR it was > 100 µM (inactive); in the assay with SN12C, > 100 µM (inactive); with RXF 393 it was 78.3 µM (inactive). The GI50 is > 100 µM (inactive) in the assay with SK-MEL-5; > 100 µM (inactive) with SW-620; > 100 µM (inactive) with 786-0; > 100 µM (inactive) in the assay with M19-MEL; 35.6 µM (inactive) in the assay with SNB-75; > 100 µM (inactive) with NCI-H226.

Consider `Clc1ccc(Nc2nc3ccccc3nc2-c2cccs2)cc1Cl`, for which the GI50 was > 100 µM (inactive) with HOP-62; 69.5 µM (inactive) in the assay on EKVX; 36.3 µM (inactive) in the assay with SF-268; 14.8 µM (inactive) in the assay on MOLT-4; 32.1 µM (inactive) in the assay with ACHN; > 100 µM (inactive) in the assay on SK-OV-3. Besides, the GI50 in the assay on SR was 22.8 µM (inactive); with SN12C it was 89.9 µM (inactive); in the assay on RXF 393 it was 22.6 µM (inactive); in the assay on SW-620 it was 85.7 µM (inactive); in the assay with 786-0, 35.7 µM (inactive); with M19-MEL it was 57.8 µM (inactive). The GI50 in the assay with SNB-75 is 84.9 µM (inactive); in the assay with NCI-H226 it was 34.1 µM (inactive).

With `COc1cc(C(CC(OC)OC)=C(C#N)C#N)cc(OC)c1OC`, the GI50 is 34.9 µM (inactive) in the assay on EKVX; 41.6 µM (inactive) with SF-268; 8.13 µM (inactive) in the assay with A498; 13.9 µM (inactive) in the assay on NCI-H522; 7.26 µM (inactive) in the assay on MOLT-4; 26.7 µM (inactive) with ACHN. In addition, the GI50 in the assay on SK-OV-3 is 32.4 µM (inactive); in the assay with SR it was 14.5 µM (inactive); with SN12C, 29.2 µM (inactive); in the assay with RXF 393 it was 25.2 µM (inactive); in the assay with SK-MEL-5, 7.4 µM (inactive); in the assay with SW-620 it was 29.7 µM (inactive). Moreover, the GI50 in the assay on 786-0 is 21.4 µM (inactive); in the assay on M19-MEL it was 12.2 µM (inactive); in the assay with SNB-75 it was 22.8 µM (inactive); in the assay with NCI-H226, 0.485 µM (active).

As for `CCN(CC)C(=O)Cc1c(C(=O)N(CC)CC)c(=O)nc2sccn12`, the GI50 in the assay on K562, in the assay with M14, with HOP-62, in the assay with EKVX, with SF-268 and in the assay with A498 was > 100 µM (inactive) in each case. Besides, the GI50 in the assay on NCI-H522, in the assay with MOLT-4, with ACHN, in the assay with SK-OV-3, in the assay on SR and with SN12C was > 100 µM (inactive) throughout. In addition, the GI50 with RXF 393, in the assay on SW-620, in the assay with 786-0, with M19-MEL, in the assay with SNB-75 and in the assay with NCI-H226 was > 100 µM (inactive) throughout.

For `CCN1C(C)=NC2C(=O)c3ccccc3C(=O)C21` (stereo not given), the GI50 with K562 was 78.9 µM (inactive); in the assay on M14 it was 66.5 µM (inactive); in the assay on HOP-62, 37.4 µM (inactive); in the assay on EKVX, > 10 µM (inactive); with SF-268, 57.7 µM (inactive); in the assay on A498 it was > 100 µM (inactive). Besides, the GI50 was 43 µM (inactive) in the assay on MOLT-4; 74.8 µM (inactive) in the assay on ACHN; 52.5 µM (inactive) in the assay on SR; 40.8 µM (inactive) in the assay on SN12C; > 100 µM (inactive) in the assay on RXF 393; 24.1 µM (inactive) in the assay with SK-MEL-5. For the same compound, the GI50 is 32.6 µM (inactive) with SW-620; 65.5 µM (inactive) in the assay with 786-0; 34.8 µM (inactive) with M19-MEL; 37.8 µM (inactive) with SNB-75; 63 µM (inactive) in the assay with NCI-H226.

With `CC1(c2ccccc2)CC(c2cccc([N+](=O)[O-])c2)=NO1` (stereo not given), the GI50 with M14 was > 100 µM (inactive); in the assay with HOP-62 it was > 100 µM (inactive); with SF-268, > 100 µM (inactive); in the assay on A498, > 100 µM (inactive); with NCI-H522 it was 30.1 µM (inactive); with MOLT-4, 56.2 µM (inactive). For the same compound, the GI50 in the assay on ACHN is > 100 µM (inactive); in the assay on SK-OV-3 it was > 100 µM (inactive); in the assay on SR, > 100 µM (inactive); in the assay on SN12C, > 100 µM (inactive); with SK-MEL-5, 56.2 µM (inactive); in the assay with SW-620, > 100 µM (inactive). Also, the GI50 with 786-0, with M19-MEL, with SNB-75 and in the assay on NCI-H226 was > 100 µM (inactive) in each case.

For the compound `O=C(Nc1ccccc1-c1nc2ccccc2[nH]c1=O)c1ccccc1`, the GI50 in the assay with K562 was > 100 µM (inactive); in the assay on M14, 59.6 µM (inactive); in the assay with HOP-62 it was 19.5 µM (inactive); in the assay with EKVX, 25.3 µM (inactive); in the assay on SF-268 it was 22.9 µM (inactive); in the assay with A498, 20.4 µM (inactive). Further, the GI50 with NCI-H522 was 14.8 µM (inactive); in the assay with MOLT-4, > 100 µM (inactive); with ACHN it was 20.1 µM (inactive); with SK-OV-3 it was 20.3 µM (inactive); in the assay on SN12C, 27.3 µM (inactive); with RXF 393 it was 21.2 µM (inactive). The GI50 in the assay on SK-MEL-5 is 32.6 µM (inactive); in the assay on SW-620, 27.9 µM (inactive); with 786-0 it was 17.3 µM (inactive); with M19-MEL it was 32.5 µM (inactive); in the assay on SNB-75, 13.8 µM (inactive); in the assay on NCI-H226, 25.2 µM (inactive).

The values are drawn from ChEMBL document CHEMBL1201862, “PubChem BioAssay data set” (2004).
